{"source": "patent US20240208978A1", "about": "“IDH MUTANT INHIBITOR AND USE THEREOF” (WIGEN BIOMEDICINE TECHNOLOGY (SHANGHAI) CO., LTD., priority 2021, published 2024)", "molecular_target": "T1, mIDH1 R132H (Homo sapiens, UniProt O75874, R132H)", "T1 construct": "expressed in transfected cells; host or cells: U87MG", "T1 sequence (O75874 whole entry R132H)": "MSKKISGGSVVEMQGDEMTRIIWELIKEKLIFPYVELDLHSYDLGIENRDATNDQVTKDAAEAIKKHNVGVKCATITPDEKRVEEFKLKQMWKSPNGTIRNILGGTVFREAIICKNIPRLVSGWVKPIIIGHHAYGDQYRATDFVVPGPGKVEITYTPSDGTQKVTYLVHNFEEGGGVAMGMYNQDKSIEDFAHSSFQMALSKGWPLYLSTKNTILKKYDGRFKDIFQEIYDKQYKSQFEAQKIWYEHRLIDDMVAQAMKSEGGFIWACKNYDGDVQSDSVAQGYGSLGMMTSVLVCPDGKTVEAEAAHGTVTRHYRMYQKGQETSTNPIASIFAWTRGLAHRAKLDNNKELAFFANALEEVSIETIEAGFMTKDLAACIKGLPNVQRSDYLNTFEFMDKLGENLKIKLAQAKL", "assay": "Detection of 2-HG in supernatant of U87-IDH1 R132H cells", "assay_type": "cell-based", "settings": "U-87 MG, 72 h, U87MG cells overexpressing mIDH1 R132H, LC-MS-MS; for inhibition at 0.001 µM: 1 nM compound, read-out: Inhibition rate on 2-HG in the supernatant of U87-IDH R132H cells, 1 nM; for inhibition at 0.01 µM: 10 nM compound, read-out: Inhibition rate on 2-HG in the supernatant of U87-IDH R132H cells, 10 nM; for inhibition at 0.1 µM: 100 nM compound, read-out: Inhibition rate on 2-HG in the supernatant of U87-IDH R132H cells, 100 nM", "experimental": "U87MG cells overexpressing the mIDH1 R132H mutation or HT1080 cells carrying IDH1 R132C were seeded in a 48-well plate and a 96-well plate at 50,000 cells/well and 10,000 cells/well, respectively. After the cells were incubated overnight for adhesion, the supernatants were removed. The cell culture media containing serially diluted compounds were added, and the cells were incubated for 72 h. After 72 h, the culture media were collected and diluted 10-fold and 20-fold with water, respectively. Acetonitrile was added to extract the metabolites. The 2-HG content in the culture media was analyzed by LC-MS-MS. The percentage inhibition and IC50 of the compounds on 2-HG in the supernatant were calculated as compared with the control group."}
{"smiles": "C=CC(=O)N1CCN(C(CC2CC2)c2ccc([C@H](C)Nc3ncc4c(n3)n(C(C)C)c(=O)n4C)cc2)CC1", "note": "(stereo partly drawn) [Compound 38]", "values": [{"measurement": "inhibition at 0.001 µM", "value": "< 30", "unit": "%"}, {"measurement": "inhibition at 0.01 µM", "value": "60 to 90", "unit": "%"}, {"measurement": "inhibition at 0.1 µM", "value": "60 to 90", "unit": "%"}]}
{"smiles": "C=CC(=O)N1CCN(C2(c3ccc([C@H](C)Nc4ncc5[nH]c(=O)n(CC)c5n4)cc3)CCCC2)CC1", "note": "[Compound 15]", "values": [{"measurement": "inhibition at 0.001 µM", "value": "30 to 60", "unit": "%"}, {"measurement": "inhibition at 0.01 µM", "value": "> 90", "unit": "%"}, {"measurement": "inhibition at 0.1 µM", "value": "> 90", "unit": "%"}]}
{"smiles": "C=CC(=O)N1CCN(C(CC23CC(C2)C3)c2ccc([C@H](C)Nc3ncc4[nH]c(=O)n(C(C)C)c4n3)cc2)CC1", "note": "(stereo partly drawn) [Compound 33]", "values": [{"measurement": "inhibition at 0.001 µM", "value": "60 to 90", "unit": "%"}, {"measurement": "inhibition at 0.01 µM", "value": "> 90", "unit": "%"}, {"measurement": "inhibition at 0.1 µM", "value": "> 90", "unit": "%"}]}
{"smiles": "C=CC(=O)N1CCN(C2(c3ccc([C@H](C)Nc4ncc5[nH]c(=O)n(CC)c5n4)cc3)CCCCC2)CC1", "note": "[Compound 16]", "values": [{"measurement": "inhibition at 0.001 µM", "value": "30 to 60", "unit": "%"}, {"measurement": "inhibition at 0.01 µM", "value": "60 to 90", "unit": "%"}, {"measurement": "inhibition at 0.1 µM", "value": "> 90", "unit": "%"}]}
{"smiles": "C=CC(=O)N1CCN(C(CC23CC(C2)C3)c2ccc([C@H](C)Nc3ncc4[nH]c(=O)n(C5CCC5)c4n3)cc2)CC1", "note": "(stereo partly drawn) [Compound 35]", "values": [{"measurement": "inhibition at 0.001 µM", "value": "30 to 60", "unit": "%"}, {"measurement": "inhibition at 0.01 µM", "value": "> 90", "unit": "%"}, {"measurement": "inhibition at 0.1 µM", "value": "> 90", "unit": "%"}]}
{"smiles": "C=CC(=O)N1CCN(C(CC2(C)CC2)c2ccc([C@H](C)Nc3ncc4[nH]c(=O)n(CC)c4n3)cc2)CC1", "note": "(stereo partly drawn) [Compound 13]", "values": [{"measurement": "inhibition at 0.001 µM", "value": "30 to 60", "unit": "%"}, {"measurement": "inhibition at 0.01 µM", "value": "60 to 90", "unit": "%"}, {"measurement": "inhibition at 0.1 µM", "value": "> 90", "unit": "%"}]}
{"smiles": "C=CC(=O)N1CCN(C(CC2CCC2)c2ccc([C@H](C)Nc3ncc4[nH]c(=O)n(CC)c4n3)cc2)CC1", "note": "(stereo partly drawn) [Compound 10]", "values": [{"measurement": "inhibition at 0.001 µM", "value": "30 to 60", "unit": "%"}, {"measurement": "inhibition at 0.01 µM", "value": "60 to 90", "unit": "%"}, {"measurement": "inhibition at 0.1 µM", "value": "> 90", "unit": "%"}]}
{"smiles": "C=CC(=O)N1CCN(C(CC(C)C)c2ccc([C@H](C)Nc3ncc4[nH]c(=O)n(C5CCC5)c4n3)cc2)CC1", "note": "(stereo partly drawn) [Compound 31]", "values": [{"measurement": "inhibition at 0.001 µM", "value": "30 to 60", "unit": "%"}, {"measurement": "inhibition at 0.01 µM", "value": "> 90", "unit": "%"}, {"measurement": "inhibition at 0.1 µM", "value": "> 90", "unit": "%"}]}
{"smiles": "C=CC(=O)N1CC2(C1)CN(C(CC1CC1)c1ccc([C@H](C)Nc3ncc4[nH]c(=O)n(CC)c4n3)cc1)C2", "note": "(stereo partly drawn) [Compound 18]", "values": [{"measurement": "inhibition at 0.001 µM", "value": "30 to 60", "unit": "%"}, {"measurement": "inhibition at 0.01 µM", "value": "> 90", "unit": "%"}, {"measurement": "inhibition at 0.1 µM", "value": "> 90", "unit": "%"}]}
{"smiles": "C=CC(=O)N1CCN(C(CC2CC2)c2ccc(C3(Nc4ncc5[nH]c(=O)n(CC)c5n4)CC3)cc2)CC1", "note": "(stereo not drawn) [Compound 39]", "values": [{"measurement": "inhibition at 0.001 µM", "value": "< 30", "unit": "%"}, {"measurement": "inhibition at 0.01 µM", "value": "60 to 90", "unit": "%"}, {"measurement": "inhibition at 0.1 µM", "value": "> 90", "unit": "%"}]}
{"smiles": "C=CC(=O)N1CCC2(CC1)CN(C(CC1CC1)c1ccc([C@H](C)Nc3ncc4[nH]c(=O)n(CC)c4n3)cc1)C2", "note": "(stereo partly drawn) [Compound 20]", "values": [{"measurement": "inhibition at 0.001 µM", "value": "30 to 60", "unit": "%"}, {"measurement": "inhibition at 0.01 µM", "value": "60 to 90", "unit": "%"}, {"measurement": "inhibition at 0.1 µM", "value": "> 90", "unit": "%"}]}
{"smiles": "C=CC(=O)N1CCN(C(CC(C)C)c2ccc([C@H](C)Nc3ncc4[nH]c(=O)n(C(C)C)c4n3)cc2)CC1", "note": "(stereo partly drawn) [Compound 29]", "values": [{"measurement": "inhibition at 0.001 µM", "value": "60 to 90", "unit": "%"}, {"measurement": "inhibition at 0.01 µM", "value": "> 90", "unit": "%"}, {"measurement": "inhibition at 0.1 µM", "value": "> 90", "unit": "%"}]}
{"smiles": "C=CC(=O)N1CCC(N(C)C(CC2CC2)c2ccc([C@H](C)Nc3ncc4[nH]c(=O)n(CC)c4n3)cc2)CC1", "note": "(stereo partly drawn) [Compound 23]", "values": [{"measurement": "inhibition at 0.001 µM", "value": "30 to 60", "unit": "%"}, {"measurement": "inhibition at 0.01 µM", "value": "60 to 90", "unit": "%"}, {"measurement": "inhibition at 0.1 µM", "value": "> 90", "unit": "%"}]}
{"smiles": "C=CC(=O)N1CCN(C(CC23CC(C2)C3)c2ccc([C@H](C)Nc3ncc4[nH]c(=O)n(CC)c4n3)cc2)CC1", "note": "(stereo partly drawn) [Compound 12]", "values": [{"measurement": "inhibition at 0.001 µM", "value": "30 to 60", "unit": "%"}, {"measurement": "inhibition at 0.01 µM", "value": "> 90", "unit": "%"}, {"measurement": "inhibition at 0.1 µM", "value": "> 90", "unit": "%"}]}
{"smiles": "C=CC(=O)N(C)C1CN(C(CC2CC2)c2ccc([C@H](C)Nc3ncc4[nH]c(=O)n(CC)c4n3)cc2)C1", "note": "(stereo partly drawn) [Compound 27]", "values": [{"measurement": "inhibition at 0.001 µM", "value": "< 30", "unit": "%"}, {"measurement": "inhibition at 0.01 µM", "value": "60 to 90", "unit": "%"}, {"measurement": "inhibition at 0.1 µM", "value": "> 90", "unit": "%"}]}
{"smiles": "C=CC(=O)N1CC2(CCN(C(CC3CC3)c3ccc([C@H](C)Nc4ncc5[nH]c(=O)n(CC)c5n4)cc3)CC2)C1", "note": "(stereo partly drawn) [Compound 22]", "values": [{"measurement": "inhibition at 0.001 µM", "value": "60 to 90", "unit": "%"}, {"measurement": "inhibition at 0.01 µM", "value": "60 to 90", "unit": "%"}, {"measurement": "inhibition at 0.1 µM", "value": "> 90", "unit": "%"}]}
{"smiles": "N#Cc1ccnc(N2C(=O)CC[C@H]2C(=O)N(c2cncc(F)c2)[C@H](C(=O)NC2CC(F)(F)C2)c2ccccc2Cl)c1", "note": "[Ivosidenib, ivosidenib, reference compound]", "values": [{"measurement": "inhibition at 0.001 µM", "value": "< 30", "unit": "%"}, {"measurement": "inhibition at 0.01 µM", "value": "< 30", "unit": "%"}, {"measurement": "inhibition at 0.1 µM", "value": "60 to 90", "unit": "%"}]}
